The record followed here is patent publication US20020172935A1, “Methods of screening for compounds that modulate blood vessel formation from circulating endothelial cell precursors” (priority 2000, published 2002).

The subject of this test is murine allantois. As to the kind of experiment: Allantois explant culture: de novo vascular development, immunolabeling and confocal analysis. The format is cell-based, mouse. Here is the method: Allantoides of 7.5dpc embryos were excised, washed in EPBS (4° C.) and then pipetted into Nunc 4 chambered culture slides (Fisher Scientific Co., Suwanee, Ga.) containing 0.4 ml of DMEM, 10% Fetal Bovine Serum, and 1% Penicillin Streptomycin. Explants were cultured at 37° C. in a 5% CO2 incubator for 12-20 hours and then fixed and permeabilized as described above. The explants were blocked in 3% BSA/PBSA 12-18 hrs, exposed to PECAM antibodies (1.5 hours, 26° C.), washed 3×40 minutes in PBSA, incubated in appropriate secondary antibodies (1.5 hours, 26° C.), washed in PBSA 3×30 minutes, and mounted as described above.
Embryos were analyzed using a Bio-Rad MRC 1024 Laser Scanning Confocal Microscope (Bio-Rad Microscopy Division, Cambridge, Mass.). Optical sectioning along the dorsoventral axis (Z-axis) was performed and the images collapsed into a single focal plane using manufacturer's software. Differential Interference Contrast (DIC) images were generated using a research grade Leitz™ photomicroscope equipped with a Photometrics™ (Tucson, Ariz.) Quantix CCD camera. Images were processed using NIH Image 1.62 software (NIH, Bethesda, Md.) and Adobe Photoshop 5.0 (Adobe Systems, Inc., San Jose, Calif.). […]

With VEGF, where the note is “7.0 dpc allantois cultured 24 hours with VEGF 2 μg/ml (FIG. 3c)”, the “vascular pattern (PECAM immunolabeling)” value is reported as “overall sinusoidal vascular pattern”. In addition, where the note is “allantois cultures, recombinant VEGF 2 μg/ml, 24 hr”, the vascular phenotype result is reported as “hyperfused vascular phenotype”.
